# Reference: patent US9346761B2, “Arginine methyltransferase inhibitors and uses thereof” (Epizyme, Inc., priority 2013, dated 2016)
# Biological target: T1, Full-length human PRMT8 (Homo sapiens, UniProt Q9NR22)
# T1 construct: Full-length human PRMT8 (NM_019854.4) isoform 1 transcript clone; made in house
# Experiment: PRMT8 biochemical assay (3H-SAM Flashplate, peptide substrate)
# Description: General Materials. S-adenosylmethionine (SAM), S-adenosylhomocysteine (SAH), bicine, Tween20, dimethylsulfoxide (DMSO), bovine skin gelatin (BSG), isopropyl-β-D-thiogalactopyranoside (IPTG), and Tris(2-carboxyethyl)phosphine hydrochloride solution (TCEP) were purchased from Sigma-Aldrich at the highest level of purity possible. ^3H-SAM was purchase from American Radiolabeled Chemicals with a specific activity of 80 Ci/mmol. 384-well streptavidin Flashplates were purchased from PerkinElmer.
# Substrates. Peptide representative of human histone H4 residues 31-45 was synthesized with an N-terminal linker-affinity tag motif and a C-terminal amide cap by 21st Century Biochemicals.
# Protein Expression. E. coli (BL21(DE3) Gold, Stratagene) made competent by the CaCl2 method were transformed with the PRMT8 construct and ampicillin selection. Protein over-expression was accomplished by growing the PRMT8 expressing E. coli clone and inducing expression with 0.3 mM IPTG at 16° C. The culture was grown for 12 hours, harvested by centrifugation, and stored at −80° C. for purification.
# Protein Purification. […] GST-tagged PRMT8 was eluted with 50 mM Tris, 2 mM glutathione, pH 7.8. Pooled fractions were cleaved by thrombin (10 U) and dialysed in buffer A. GST was removed by reloading the cleaved protein sample onto glutathione sepharose column and PRMT8 was collected in the flow-through fractions. PRMT8 was purified further by ceramic hydroxyapatite chromatography. The column was washed with 50 mM phosphate buffer, 100 mM NaCl, 5% glycerol, 5 mM β-mercaptoethanol, pH 7.8 and PRMT8 was eluted by 100 mM phosphate in the same buffer. Protein was concentrated and buffer was exchanged to 50 mM Tris, 300 mM NaCl, 10% glycerol, 5 mM β-mercaptoethanol, pH 7.8 by ultrafiltration.
# General Procedure for PRMT8 Enzyme Assays on Peptide Substrates. The assays were all performed in a buffer consisting of 20 mM Bicine (pH=7.6), 1 mM TCEP, 0.005% BSG, and 0.002% Tween 20, prepared on the day of use. […] DMSO (1 ul) was added to Columns 11, 12, 23, 24, rows A-H for the maximum signal control and 1 ul of SAH, a known product and inhibitor of PRMT8, was added to columns 11, 12, 23, 24, rows I-P for the minimum signal control. A cocktail (40 ul) containing the PRMT8 enzyme was added by Multidrop Combi (Thermo-Fisher). The compounds were allowed to incubate with PRMT8 for 30 min at room temperature, then a cocktail (10 ul) containing ^3H-SAM and peptide was added to initiate the reaction (final volume=51 ul). […] The assays were stopped by the addition of non-radiolabeled SAM (10 ul) to a final concentration of 400 uM, which dilutes the ^3H-SAM to a level where its incorporation into the peptide substrate is no longer detectable. 50 ul of the reaction in the 384-well polypropylene plate was then transferred to a 384-well Flashplate and the biotinylated peptides were allowed to bind to the streptavidin surface for at least 1 hour before being washed once with 0.1% Tween20 in a Biotek ELx405 plate washer. The plates were then read in a PerkinElmer TopCount plate reader to measure the quantity of ^3H-labeled peptide bound to the Flashplate surface, measured as disintegrations per minute (dpm) or alternatively, referred to as counts per minute (cpm).
# Where dpm=disintegrations per minute, cmpd=signal in assay well, and min and max are the respective minimum and maximum signal controls.
# Where top and bottom are the normally allowed to float, but may be fixed at 100 or 0 respectively in a 3-parameter fit. The Hill Coefficient normally allowed to float but may also be fixed at 1 in a 3-parameter fit. Y is the % inhibition and X is the compound concentration.
# T1 sequence (Q9NR22 whole entry, canonical isoform): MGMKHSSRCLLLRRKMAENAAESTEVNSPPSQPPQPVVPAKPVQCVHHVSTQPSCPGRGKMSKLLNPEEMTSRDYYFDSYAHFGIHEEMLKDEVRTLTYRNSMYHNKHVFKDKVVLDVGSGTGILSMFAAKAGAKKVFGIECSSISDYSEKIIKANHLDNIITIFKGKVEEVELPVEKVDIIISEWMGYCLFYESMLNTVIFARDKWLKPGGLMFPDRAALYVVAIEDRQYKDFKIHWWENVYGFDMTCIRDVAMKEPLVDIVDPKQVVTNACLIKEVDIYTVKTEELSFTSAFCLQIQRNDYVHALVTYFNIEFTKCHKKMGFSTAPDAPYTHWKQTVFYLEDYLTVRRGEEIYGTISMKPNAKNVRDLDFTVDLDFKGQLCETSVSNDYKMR
row,Compound,IC50 [nM]
1,CN(CCN)Cc1n[nH]cc1-c1ccc(C#N)cc1 [Compound 100],101 to 1000
2,Cc1ccc(-c2n[nH]cc2CN(C)CCN)cc1Cl [Compound 126],101 to 1000
3,COc1cccc(-c2n[nH]cc2CN(C)CCN)c1 [Compound 130],101 to 1000
4,COc1ccc(-c2n[nH]cc2CN(C)CCN)cc1F [Compound 134],101 to 1000
5,Cc1cccc(-c2n[nH]cc2CN(C)CCN)c1 [Compound 131],101 to 1000
6,COc1ccc(-c2n[nH]cc2CN(C)CCN)c(F)c1 [Compound 107],101 to 1000
7,CN(CCN)Cc1c[nH]nc1-c1ccc(F)c(Cl)c1 [Compound 124],101 to 1000
8,Cc1[nH]nc(-c2ccc(F)cc2)c1CN(C)CCN [Compound 169],1010 to 3000
9,CN(CCN)Cc1c[nH]nc1-c1ccc(OCC(F)(F)F)cc1 [Compound 96],101 to 1000
10,CN(CCN)Cc1c[nH]nc1-c1ccc(Cl)cc1 [Compound 95],101 to 1000
11,COCCn1cc(CN(C)CCN)c(-c2ccc(F)cc2)n1 [Compound 5],3010 to 10000
12,CN(CCN)Cc1c[nH]nc1-c1ccc2c(c1)NC(=O)CO2 [Compound 173],3010 to 10000
13,COc1ccc(-c2n[nH]cc2CN(C)CCN)c(Cl)c1 [Compound 146],1010 to 3000
14,CC(=O)c1cccc(-c2n[nH]cc2CN(C)CCN)c1 [Compound 112],101 to 1000
15,CN(CCN)Cc1cn(CC2CCOCC2)nc1-c1ccc(F)cc1 [Compound 128],> 10000
16,CN(CCN)Cc1cnn(CC(O)CO)c1-c1ccc(F)cc1 (stereo not shown) [Compound 113],3010 to 10000
17,COc1ccc(-c2n[nH]cc2CN(C)CCN)c(C(F)(F)F)c1 [Compound 154],3010 to 10000
18,CN(CCN)Cc1c[nH]nc1-c1cc(C#N)ccc1Cl [Compound 147],> 10000
19,COc1ccc(F)cc1-c1n[nH]cc1CN(C)CCN [Compound 160],3010 to 10000
20,CN(CCN)Cc1c[nH]nc1-c1cc(Cl)ccc1F [Compound 156],1010 to 3000
21,CN(CCN)Cc1c[nH]nc1-c1ccc(C2CC2)cc1 [Compound 116],101 to 1000
22,COc1ccc(-c2n[nH]cc2CN(C)CCN)c(C)c1 [Compound 155],101 to 1000
23,CCN(CC)C(=O)c1ccc(-c2n[nH]cc2CN(C)CCN)cc1 [Compound 143],1010 to 3000
24,CN(CCN)Cc1n[nH]cc1-c1ccc(C2CC2)cc1 [Compound 104],101 to 1000
25,CCn1ncc(CN(C)CCNC)c1-c1ccc(F)cc1 [Compound 7],3010 to 10000
26,CN(CCN)Cc1c[nH]nc1-c1ccc(C(F)(F)F)cc1F [Compound 148],101 to 1000
27,CN(CCN)Cc1c[nH]nc1-c1cc(F)cc(F)c1 [Compound 111],101 to 1000

row,Compound,IC50 [nM]
1,Cc1ccccc1-c1n[nH]cc1CN(C)CCN [Compound 161],1010 to 3000
2,CCN(C)C(=O)c1ccc(-c2n[nH]cc2CN(C)CCN)cc1 [Compound 163],1010 to 3000
3,CN(CCN)Cc1c[nH]nc1-c1cc(F)ccc1Cl [Compound 106],3010 to 10000
4,Cc1ccc(F)cc1-c1n[nH]cc1CN(C)CCN [Compound 159],101 to 1000
5,COCCOc1ccc(-c2n[nH]cc2CN(C)CCN)cc1 [Compound 167],101 to 1000
6,CN(CCN)Cc1c[nH]nc1-c1cccc(Cl)c1F [Compound 123],101 to 1000
7,CCNC(=O)c1ccc(-c2n[nH]cc2CN(C)CCN)cc1 [Compound 136],101 to 1000
8,COc1cc(F)ccc1-c1n[nH]cc1CN(C)CCN [Compound 151],1010 to 3000
9,Cc1cc(Cl)ccc1-c1n[nH]cc1CN(C)CCN [Compound 133],101 to 1000
10,CN(CCN)Cc1c[nH]nc1-c1cccc(N(C)C)c1 [Compound 149],101 to 1000
11,Cc1ccc(-c2n[nH]cc2CN(C)CCN)cc1 [Compound 162],101 to 1000
12,Cc1cc(F)ccc1-c1n[nH]cc1CN(C)CCN [Compound 152],101 to 1000
13,CN(CCN)Cc1c[nH]nc1-c1ccc(C(F)(F)F)cc1Cl [Compound 135],1010 to 3000
14,CN(CCN)Cc1c[nH]nc1-c1cc(F)cc(Cl)c1 [Compound 121],101 to 1000
15,CN(CCN)Cc1c[nH]nc1-c1ccc(C2CCOCC2)cc1 [Compound 98],101 to 1000
16,COc1cc(Cl)cc(-c2n[nH]cc2CN(C)CCN)c1 [Compound 127],101 to 1000
17,CN(CCN)Cc1c[nH]nc1-c1ccc(OC2CC2)cc1 [Compound 114],< 100
18,CN(CCN)Cc1n[nH]cc1-c1ccc(Cl)cc1 [Compound 102],101 to 1000
19,CC(C)Cc1ccc(-c2c[nH]nc2CN(C)CCN)cc1 [Compound 170],101 to 1000
20,Cc1c(F)cccc1-c1n[nH]cc1CN(C)CCN [Compound 129],101 to 1000
21,CN(CCN)Cc1n[nH]cc1-c1ccc(OC2CC2)cc1 [Compound 119],101 to 1000
22,CN(CCN)Cc1c[nH]nc1-c1cc(Cl)cc(Cl)c1 [Compound 137],101 to 1000
23,Cc1cc(C#N)ccc1-c1n[nH]cc1CN(C)CCN [Compound 110],101 to 1000
24,CN(CCN)Cc1n[nH]cc1-c1ccc(OC(F)(F)F)cc1 [Compound 105],101 to 1000
25,CCOc1ccc(-c2n[nH]cc2CN(C)CCN)cc1 [Compound 166],101 to 1000
26,CN(CCN)Cc1c[nH]nc1-c1ccc(C(F)(F)F)c(Cl)c1 [Compound 117],< 100
27,CN(CCN)Cc1n[nH]cc1-c1ccc(C(F)(F)F)cc1 [Compound 103],101 to 1000

row,Compound,IC50 [nM]
1,COc1ccc(-c2n[nH]cc2CN(C)CCN)cc1Cl [Compound 125],101 to 1000
2,CCn1cc(CN(C)CCNC)c(-c2ccc(F)cc2)n1 [Compound 8],3010 to 10000
3,CC(C)Oc1ccc(-c2n[nH]cc2CN(C)CCN)cc1F [Compound 97],< 100
4,CN(CCN)Cc1c[nH]nc1-c1ccc(F)cc1F [Compound 99],1010 to 3000
5,CN(CCN)Cc1n[nH]cc1-c1ccc(C2CCOCC2)cc1 [Compound 145],101 to 1000
6,Cc1ccc(C#N)cc1-c1n[nH]cc1CN(C)CCN [Compound 158],> 10000
7,CC(C)Oc1ccc(-c2c[nH]nc2CN(C)CCN)cc1F [Compound 144],101 to 1000
8,CN(CCN1CCCC1)Cc1c[nH]nc1-c1ccc(C#N)cc1 [Compound 139],> 10000
9,CN(CCN)Cc1c[nH]nc1-c1ccc(C(F)(F)F)c(F)c1 [Compound 141],101 to 1000
10,CCOC(=O)c1cccc(-c2n[nH]cc2CN(C)CCN)c1 [Compound 150],101 to 1000
11,CN(CCN)Cc1c[nH]nc1-c1ccc(Cl)cc1F [Compound 132],101 to 1000
12,CN(CCN)Cc1c[nH]nc1-c1cccc(Cl)c1 [Compound 122],101 to 1000
13,Cc1ccc(-c2n[nH]cc2CN(C)CCN)c(F)c1 [Compound 108],1010 to 3000
14,COc1ccc(Cl)cc1-c1n[nH]cc1CN(C)CCN [Compound 157],3010 to 10000
15,CN(CCN)Cc1c[nH]nc1-c1ccc(OCCN2CCOCC2)cc1 [Compound 172],3010 to 10000
16,CN(CCN)Cc1c[nH]nc1-c1ccccc1C#N [Compound 140],3010 to 10000
17,NCCN(CCO)Cc1c[nH]nc1-c1ccc(F)cc1 [Compound 171],1010 to 3000
18,CC(C)CN(C)C(=O)c1ccc(-c2n[nH]cc2CN(C)CCN)cc1 [Compound 164],1010 to 3000
19,CC(O)c1ccc(-c2n[nH]cc2CN(C)CCN)cc1 (stereo not shown) [Compound 115],1010 to 3000
20,COc1ccc(-c2n[nH]cc2CN(C)CCN)cc1 [Compound 153],101 to 1000
21,CC(C)c1ccc(-c2c[nH]nc2CN(C)CCN)cc1 [Compound 101],101 to 1000
22,CN(CCN)Cc1c[nH]nc1-c1ccc(Cl)c(F)c1 [Compound 118],101 to 1000
23,CN(CCN)Cc1n[nH]cc1-c1ccc(OC(F)F)cc1 [Compound 138],101 to 1000
24,COc1cc(-c2n[nH]cc2CN(C)CCN)ccc1F [Compound 142],101 to 1000
25,COc1ccccc1-c1n[nH]cc1CN(C)CCN [Compound 109],1010 to 3000
